Assay results reported in article PMC9090415, “Discovery of small molecule inhibitors of Plasmodium falciparum apicoplast DNA polymerase” (Journal of Enzyme Inhibition and Medicinal Chemistry, 2022).

Target: P. falciparum apicoplast DNA polymerase (Pf-apPOL) (Plasmodium falciparum, UniProt Q8ILY1)
Experiment: Fluorescence-based high-throughput DNA polymerase assay (molecular beacon), primary screen and dose-response
Type: biochemical
Details: for DNA Pol: 90 min, 10 µM; for % inhibition apPOL 180' 2.5 / % inhibition apPOL 180' 5 / % inhibition apPOL 180' 10 / % inhibition apPOL 180' 20 / % inhibition apPOL 180' 40 / % inhibition apPOL 180' 80: read at 180'
In short: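 Single-point screening used 10 µM compound with 20 nM polymerase, 20 nM hairpin substrate and 6 µM dNTPs for 90 min at 25 °C. Confirmatory titrations (2.5–80 µM) followed fluorescence at three times, and IC50 was derived from a fit including a cooperativity term n.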

[1] = 'DNA Pol' of the 186 hits list (primary screen value)

Sequence of P. falciparum apicoplast DNA polymerase (Pf-apPOL) (Q8ILY1 entry or part of it): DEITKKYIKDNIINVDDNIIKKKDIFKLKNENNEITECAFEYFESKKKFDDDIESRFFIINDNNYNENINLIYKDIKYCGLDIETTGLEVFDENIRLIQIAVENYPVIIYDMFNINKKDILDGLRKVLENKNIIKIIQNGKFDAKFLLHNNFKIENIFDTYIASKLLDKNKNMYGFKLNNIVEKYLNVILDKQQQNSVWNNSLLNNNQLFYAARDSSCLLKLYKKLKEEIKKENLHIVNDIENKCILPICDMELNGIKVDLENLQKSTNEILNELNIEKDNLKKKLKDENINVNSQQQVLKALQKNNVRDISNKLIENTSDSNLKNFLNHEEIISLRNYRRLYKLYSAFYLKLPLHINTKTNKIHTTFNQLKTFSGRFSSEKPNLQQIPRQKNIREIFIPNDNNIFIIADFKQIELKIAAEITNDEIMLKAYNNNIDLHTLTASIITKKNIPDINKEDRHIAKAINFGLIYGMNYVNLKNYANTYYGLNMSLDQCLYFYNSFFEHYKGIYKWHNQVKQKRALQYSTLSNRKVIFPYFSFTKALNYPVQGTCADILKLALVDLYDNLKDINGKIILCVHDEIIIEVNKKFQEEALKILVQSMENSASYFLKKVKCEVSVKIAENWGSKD

O=C1c2ccccc2C(=O)N1Oc1ccc([N+](=O)[O-])c([N+](=O)[O-])c1 [Molecule 66, O=N(=O)c1cc(ccc1N(=O)=O)ON1C(=O)c2c(C1=O)cccc2]
DNA Pol [1]: 72 | DNA Pol (DNA Pol (primary screen value)): 72 | % inhibition Apo pol 10' (DRC-1, concentration 2.5): 7.12% | % inhibition Apo pol 10' (DRC-1, concentration 5): 12.8299% | % inhibition Apo pol 10' (DRC-1, concentration 10): 14.545% | % inhibition Apo pol 10' (DRC-1, concentration 20): 24.992% | % inhibition Apo pol 10' (DRC-1, concentration 40): 53.6709% | % inhibition Apo pol 10' (DRC-1, concentration 80): 72.2964% | % inhibition Apol 90' (DRC-1, concentration 2.5): 2.278% | % inhibition Apol 90' (DRC-1, concentration 5): 9.738% | % inhibition Apol 90' (DRC-1, concentration 10): 13.1271% | % inhibition Apol 90' (DRC-1, concentration 20): 22.9091% | % inhibition Apol 90' (DRC-1, concentration 40): 49.4397% | % inhibition Apol 90' (DRC-1, concentration 80): 69.1434% | % inhibition apPOL 180' (DRC-1, concentration 2.5): -1.453% | % inhibition apPOL 180' (DRC-1, concentration 5): 3.779% | % inhibition apPOL 180' (DRC-1, concentration 10): 7.291% | % inhibition apPOL 180' (DRC-1, concentration 20): 17.0641% | % inhibition apPOL 180' (DRC-1, concentration 40): 43.6341% | % inhibition apPOL 180' (DRC-1, concentration 80): 66.4384% | % inhibition Apo pol 5' (DRC-2, concentration 2.5): 1.26% | % inhibition Apo pol 5' (DRC-2, concentration 5): 6% | % inhibition Apo pol 5' (DRC-2, concentration 10): 12% | % inhibition Apo pol 5' (DRC-2, concentration 20): 27% | % inhibition Apo pol 5' (DRC-2, concentration 40): 40% | % inhibition Apo pol 5' (DRC-2, concentration 80): 51% | % inhibition Apol 40' (DRC-2, concentration 2.5): 6.34% | % inhibition Apol 40' (DRC-2, concentration 5): 11% | % inhibition Apol 40' (DRC-2, concentration 10): 18% | % inhibition Apol 40' (DRC-2, concentration 20): 35% | % inhibition Apol 40' (DRC-2, concentration 40): 48% | % inhibition Apol 40' (DRC-2, concentration 80): 62% | % inhibition ApPOL 90' (DRC-2, concentration 2.5): 5% | % inhibition ApPOL 90' (DRC-2, concentration 5): 9.49% | % inhibition ApPOL 90' (DRC-2, concentration 10): 17% | % inhibition ApPOL 90' (DRC-2, concentration 20): 36% | % inhibition ApPOL 90' (DRC-2, concentration 40): 50% | % inhibition ApPOL 90' (DRC-2, concentration 80): 66% | % inhibition apPOL 180' (DRC-2, concentration 2.5): 3% | % inhibition apPOL 180' (DRC-2, concentration 5): 5.62% | % inhibition apPOL 180' (DRC-2, concentration 10): 13% | % inhibition apPOL 180' (DRC-2, concentration 20): 32% | % inhibition apPOL 180' (DRC-2, concentration 40): 48% | % inhibition apPOL 180' (DRC-2, concentration 80): 68%

Cc1ccc(-n2nnc(C(=O)O)c2-c2ccccn2)c(F)c1 [Molecule 54, Cc1ccc(c(c1)F)n1nnc(c1c1ccccn1)C(=O)O]
DNA Pol [1]: 25 | DNA Pol (DNA Pol (primary screen value)): 25 | % inhibition Apo pol 10' (DRC-1, concentration 2.5): 7.865% | % inhibition Apo pol 10' (DRC-1, concentration 5): 13.3823% | % inhibition Apo pol 10' (DRC-1, concentration 10): 36.76% | % inhibition Apo pol 10' (DRC-1, concentration 20): 54.7705% | % inhibition Apo pol 10' (DRC-1, concentration 40): 63.8546% | % inhibition Apo pol 10' (DRC-1, concentration 80): 49.8653% | % inhibition Apol 90' (DRC-1, concentration 2.5): 0.06529% | % inhibition Apol 90' (DRC-1, concentration 5): 1.171% | % inhibition Apol 90' (DRC-1, concentration 10): 17.5602% | % inhibition Apol 90' (DRC-1, concentration 20): 37.4412% | % inhibition Apol 90' (DRC-1, concentration 40): 61.51% | % inhibition Apol 90' (DRC-1, concentration 80): 66.8702% | % inhibition apPOL 180' (DRC-1, concentration 2.5): -5.444% | % inhibition apPOL 180' (DRC-1, concentration 5): -7.146% | % inhibition apPOL 180' (DRC-1, concentration 10): 5.348% | % inhibition apPOL 180' (DRC-1, concentration 20): 21.3721% | % inhibition apPOL 180' (DRC-1, concentration 40): 53.298% | % inhibition apPOL 180' (DRC-1, concentration 80): 71.3072% | % inhibition Apo pol 5' (DRC-2, concentration 2.5): 5% | % inhibition Apo pol 5' (DRC-2, concentration 5): 15% | % inhibition Apo pol 5' (DRC-2, concentration 10): 31% | % inhibition Apo pol 5' (DRC-2, concentration 20): 33% | % inhibition Apo pol 5' (DRC-2, concentration 40): 21% | % inhibition Apo pol 5' (DRC-2, concentration 80): -14% | % inhibition Apol 40' (DRC-2, concentration 2.5): 5.55% | % inhibition Apol 40' (DRC-2, concentration 5): 10% | % inhibition Apol 40' (DRC-2, concentration 10): 27% | % inhibition Apol 40' (DRC-2, concentration 20): 42% | % inhibition Apol 40' (DRC-2, concentration 40): 48% | % inhibition Apol 40' (DRC-2, concentration 80): 33% | % inhibition ApPOL 90' (DRC-2, concentration 2.5): 3.47% | % inhibition ApPOL 90' (DRC-2, concentration 5): 6% | % inhibition ApPOL 90' (DRC-2, concentration 10): 22% | % inhibition ApPOL 90' (DRC-2, concentration 20): 39% | % inhibition ApPOL 90' (DRC-2, concentration 40): 52% | % inhibition ApPOL 90' (DRC-2, concentration 80): 45% | % inhibition apPOL 180' (DRC-2, concentration 2.5): 0.3% | % inhibition apPOL 180' (DRC-2, concentration 5): -1.15% | % inhibition apPOL 180' (DRC-2, concentration 10): 13% | % inhibition apPOL 180' (DRC-2, concentration 20): 28% | % inhibition apPOL 180' (DRC-2, concentration 40): 51% | % inhibition apPOL 180' (DRC-2, concentration 80): 55%

CC(=O)Nc1cc(C(=O)c2cccs2)nn(-c2ccc(Cl)cc2)c1=O [KU0267905]
DNA Pol (186 hits, DNA Pol (screen value), unit not given): 68 | DNA Pol ('DNA Pol' (screen value), unit not given): 68 | % inhibition Apo pol 10' 2.5 (DRC-1, read at 10', concentration 2.5): -1.115% | % inhibition Apo pol 10' 5 (DRC-1, read at 10', concentration 5): 9.678% | % inhibition Apo pol 10' 10 (DRC-1, read at 10', concentration 10): 23.8402% | % inhibition Apo pol 10' 20 (DRC-1, read at 10', concentration 20): 30.1491% | % inhibition Apo pol 10' 40 (DRC-1, read at 10', concentration 40): 60.7427% | % inhibition Apo pol 10' 80 (DRC-1, read at 10', concentration 80): 68.442% | % inhibition Apol 90' 2.5 (DRC-1, read at 90', concentration 2.5): -1.383% | % inhibition Apol 90' 5 (DRC-1, read at 90', concentration 5): -2.969% | % inhibition Apol 90' 10 (DRC-1, read at 90', concentration 10): 7.904% | % inhibition Apol 90' 20 (DRC-1, read at 90', concentration 20): 14.4381% | % inhibition Apol 90' 40 (DRC-1, read at 90', concentration 40): 45.4354% | % inhibition Apol 90' 80 (DRC-1, read at 90', concentration 80): 70.7976% | % inhibition apPOL 180' 2.5 (DRC-1, concentration 2.5): -1.959% | % inhibition apPOL 180' 5 (DRC-1, concentration 5): -7.949% | % inhibition apPOL 180' 10 (DRC-1, concentration 10): -1.249% | % inhibition apPOL 180' 20 (DRC-1, concentration 20): 2.642% | % inhibition apPOL 180' 40 (DRC-1, concentration 40): 28.3479% | % inhibition apPOL 180' 80 (DRC-1, concentration 80): 62.799% | % inhibition Apo pol 5' (DRC-2, concentration 2.5): 7% | % inhibition Apol 40' (DRC-2, concentration 5): 7% | % inhibition Apol 40' (DRC-2, concentration 80): 52% | % inhibition ApPOL 90' (DRC-2, concentration 5): 4% | % inhibition apPOL 180' (DRC-2, concentration 10): 4% | % inhibition apPOL 180' (DRC-2, concentration 80): 52% | % inhibition Apo pol 5' 2.5 (DRC-2, read at 5', concentration 2.5): 7% | % inhibition Apo pol 5' 5 (DRC-2, read at 5', concentration 5): 11% | % inhibition Apo pol 5' 10 (DRC-2, read at 5', concentration 10): 21% | % inhibition Apo pol 5' 20 (DRC-2, read at 5', concentration 20): 29% | % inhibition Apo pol 5' 40 (DRC-2, read at 5', concentration 40): 40% | % inhibition Apo pol 5' 80 (DRC-2, read at 5', concentration 80): 36% | % inhibition Apol 40' 2.5 (DRC-2, read at 40', concentration 2.5): 4.64% | % inhibition Apol 40' 5 (DRC-2, read at 40', concentration 5): 7% | % inhibition Apol 40' 10 (DRC-2, read at 40', concentration 10): 15% | % inhibition Apol 40' 20 (DRC-2, read at 40', concentration 20): 25% | % inhibition Apol 40' 40 (DRC-2, read at 40', concentration 40): 44% | % inhibition Apol 40' 80 (DRC-2, read at 40', concentration 80): 52% | % inhibition ApPOL 90' 2.5 (DRC-2, read at 90', concentration 2.5): 3.39% | % inhibition ApPOL 90' 5 (DRC-2, read at 90', concentration 5): 4% | % inhibition ApPOL 90' 10 (DRC-2, read at 90', concentration 10): 12% | % inhibition ApPOL 90' 20 (DRC-2, read at 90', concentration 20): 19% | % inhibition ApPOL 90' 40 (DRC-2, read at 90', concentration 40): 42% | % inhibition ApPOL 90' 80 (DRC-2, read at 90', concentration 80): 55% | % inhibition apPOL 180' 2.5 (DRC-2, concentration 2.5): -1.41% | % inhibition apPOL 180' 5 (DRC-2, concentration 5): 0.65% | % inhibition apPOL 180' 10 (DRC-2, concentration 10): 4% | % inhibition apPOL 180' 20 (DRC-2, concentration 20): 9% | % inhibition apPOL 180' 40 (DRC-2, concentration 40): 31% | % inhibition apPOL 180' 80 (DRC-2, concentration 80): 52%
